Results published in patent US4696912A, “Stabilized compositions” (priority 1986, dated 1987).
In brackets after ≈: the same amount, converted by molar mass. Read-outs that look alike come from different tables or passages of the source.

Columns and labels:
[1] = system: L1210 Leukemia Cells; test: In vitro activity of CL-1565-A against L1210 leukemia cells; format: cell-based; conditions: Mus musculus, read-out: ID50 (the source's name)
[2] = system: Saccharomyces cervisiae; test: Antifungal activity, paper disk zone of inhibition; format: cell-based; conditions: 12.7 mm paper disks, 500 ug/ml, overnight at 28° C., read-out: Zone diameter
Protocol: (§1) Paper disks (12.7 mm in diameter) impregnated with an aqueous solution containing 500 ug of CL-1565-A/ml were placed on a layer of agar inoculated with the indicated microorganisms. After incubation overnight at 28° C., the following zones of inhibition were observed.

[3] = system: Saccharomyces italicus; test: Antifungal activity, paper disk zone of inhibition; format: cell-based; conditions: 12.7 mm paper disks, 500 ug/ml, overnight at 28° C.; read-out: Zone diameter
Protocol: as §1

[4] = system: P388 Lymphatic Leukemia; test: In vivo antitumor activity against P388 lymphatic leukemia in mice
From the text: In Vivo Antitumor Activity of CL-1565-A Against P388 Lymphatic Leukemia in Mice
The test method used is based on that described in Cancer Chemother. Reports 3:1-87 (part 3). 1972.

[5] = Stability in solid state form (HPLC assay); format: physicochemical; conditions: for remaining at 168 h / remaining at 504 h / remaining at 840 h: Table 1, solid state; for remaining at 168 h: 1 week; for remaining at 168 h / remaining at 504 h / remaining at 840 h / remaining at 2160 h / remaining at 3600 h / remaining at 6480 h / remaining at 16560 h: read-out: % CL-1565-A Remaining; for remaining at 504 h: 3 weeks; for remaining at 840 h: 5 weeks; for remaining at 2160 h / remaining at 3600 h / remaining at 6480 h / remaining at 16560 h: Table 3, solid form; for remaining at 2160 h: 3 months; for remaining at 3600 h: 5 months; for remaining at 6480 h: 9 months; for remaining at 16560 h: 23 months
Protocol: *Samples prepared by lyophilization of 1.5 mL aliquots of an aqueous
solution containing 15 mg of CL1565-A per ml.
^a Samples prepared by lyophilization of 1.5 mL of an aqueous solutio
containing 15 mg/mL of CL1565-A in 6mL serum vials.
^b Samples prepared by mixing CL1565-A and sodium ascorbate (1:1 mola
ratio) in solution prior to lyophilization.
(§2) CL-1565-A content was assayed by HPLC using a uBondapak C-18 silica gel column (Waters Assoc.) and 0.05 M pH 6.8 sodium phosphate buffer--acetonitrile (89:11) as the mobile phase, at a flow rate of 2 mL/minute. The retention time of CL-1565-A in this system is approximately 4.7 minutes. Solid samples were reconstituted in 100 mL of water immediately prior to HPLC assay. Solutions of CL-1565-A were diluted to a final concentration of 300 ug/mL with water prior to assay.

[6] = Stability in aqueous solution (HPLC assay); format: physicochemical; conditions: for remaining at 168 h / remaining at 336 h / remaining at 552 h / remaining at 48 h: aqueous solution, read-out: % CL-1565-A Remaining; for remaining at 168 h: 7 days; for remaining at 336 h: 14 days; for remaining at 48 h: 2 days
Protocol: ^b Solutions prepared by adding sodium ascorbate to solutions of
CL1565-A to yield an equimolar concentration.
as §2

[7] = Table 2, aqueous solution 5 mg/mL, 5° C.
[8] = Table 2, aqueous solution 5 mg/mL, 25° C.
[9] = Table 2, aqueous solution 15 mg/mL, 5° C.
[10] = Table 2, aqueous solution 15 mg/mL, 25° C.

Work on `CC(O)(C=CC1CC=CC(=O)O1)C(CC(O)C=CC=CC=CCO)OP(=O)(O)O` (stereo not shown) [CL-1565-A] yielded an IC50 [1] of 0.078 µg/mL (≈ 0.181 µM), a zone of inhibition at 500 µg/mL [2] of 25 mm and a zone of inhibition at 500 µg/mL [3] of 17 mm. The “T/C × 100” value ([4]; 1.1 mg/kg/day, test-1) was 170, the “T/C × 100” value ([4]; 1.1 mg/kg/day, test-2) was 139 and the “T/C × 100” value ([4]; 2.1 mg/kg/day, test-1) was 173. The “T/C × 100” value ([4]; 2.1 mg/kg/day, test-2) was 157, the “T/C × 100” value ([4]; 4.3 mg/kg/day, test-1) was 170 and the “T/C × 100” value ([4]; 4.3 mg/kg/day, test-2) was 172. For the same compound, the “T/C × 100” value ([4]; 6.3 mg/kg/day, test-3) was 142, the “T/C × 100” value ([4]; 8.5 mg/kg/day, test-1) was 256 and the “T/C × 100” value ([4]; 8.5 mg/kg/day, test-2) was 209. For the same compound, the “T/C × 100” value ([4]; 12.5 mg/kg/day, test-3) was 150, the “T/C × 100” value ([4]; 17 mg/kg/day, test-1) was 256 and the “T/C × 100” value ([4]; 17 mg/kg/day, test-2) was 248. For the same compound, the “T/C × 100” value ([4]; 25 mg/kg/day, test-3) was 174, the remaining at 168 h ([5]; 5° C.) was 100% and the remaining at 504 h ([5]; 5° C.) was 100%. The remaining at 840 h ([5]; 5° C.) was 100%, the remaining at 168 h ([5]; 25° C.) was 87% and the remaining at 504 h ([5]; 25° C.) was 77%. For the same compound, the remaining at 840 h ([5]; 25° C.) was 69%, the remaining at 168 h ([5]; 37° C.) was 70% and the remaining at 504 h ([5]; 37° C.) was 26%. For the same compound, the remaining at 168 h ([5]; -15° C.) was 100%, the remaining at 504 h ([5]; -15° C.) was 100% and the remaining at 840 h ([5]; -15° C.) was 100%. For the same compound, the remaining at 2160 h ([5]; 5°) was 88%, the remaining at 3600 h ([5]; 5°) was 86% and the remaining at 6480 h ([5]; 5°) was 79%. The remaining at 16560 h ([5]; 5°) was 74%, the remaining at 2160 h ([5]; 25°) was 61% and the remaining at 2160 h ([5]; -15°) was 100%. For the same compound, the remaining at 3600 h ([5]; -15°) was 100%, the remaining at 6480 h ([5]; -15°) was 100% and the remaining at 16560 h ([5]; -15°) was 100%. For the same compound, the degraded at 840 h ([5]; five weeks at 25° C., read-out: decomposition) was 31%, the remaining at 168 h [6, 7] was 92% and the remaining at 336 h [6, 7] was 83%. The remaining at 552 h ([6]; Table 2, aqueous solution 5 mg/mL, 5° C., 23 days) was 76%, the remaining at 168 h [6, 8] was 77% and the remaining at 336 h [6, 8] was 63%. For the same compound, the remaining at 552 h ([6]; Table 2, aqueous solution 5 mg/mL, 25° C., 23 days) was 45%, the remaining at 168 h [6, 9] was 81% and the remaining at 336 h [6, 9] was 76%. The remaining at 552 h ([6]; Table 2, aqueous solution 15 mg/mL, 5° C., 23 days) was 66%, the remaining at 168 h [6, 10] was 67% and the remaining at 336 h [6, 10] was 55%. It also gave a remaining at 552 h ([6]; Table 2, aqueous solution 15 mg/mL, 25° C., 23 days) of 42%, a remaining at 168 h ([6]; Table 2, aqueous solution 15 mg/mL, 37° C.) of 35% and a remaining at 48 h ([6]; Table 4, aqueous solution 15 mg/mL, 5° C.) of 90%. For the same compound, the remaining at 552 h ([6]; Table 4, aqueous solution 15 mg/mL, 5° C., 23 days) was 66%, the remaining at 48 h ([6]; Table 4, aqueous solution 15 mg/mL, 25° C.) was 87% and the remaining at 552 h ([6]; Table 4, aqueous solution 15 mg/mL, 25° C., 23 days) was 42%. For the same compound, the degraded at 552 h ([6]; water, 23 days, 15 mg/mL in aqueous solution, read-out: decomposition) was 48%.
